Broadly, the IC20 is the concentration needed for an effect of 20%. A higher IC20 goes with weaker potency. As usually defined, the IC80 is the concentration at which the effect reaches the 80% level. Low readings indicate an effect from little substance, high ones a need for much substance. Usually IC50 stands for the concentration needed to halve the response being measured.

Results on one molecule are retold here after article PMC7279487, “Dual Target Ligands with 4-tert-Butylphenoxy Scaffold as Histamine H3 Receptor Antagonists and Monoamine Oxidase B Inhibitors” (International Journal of Molecular Sciences, 2020).

Molecules are shown by their SMILES.

Data set [1] deals with T1, hMAO B (Homo sapiens, UniProt P27338).
T1 construct: purchased Sigma Aldrich M7441
T1 sequence (P27338 1-520): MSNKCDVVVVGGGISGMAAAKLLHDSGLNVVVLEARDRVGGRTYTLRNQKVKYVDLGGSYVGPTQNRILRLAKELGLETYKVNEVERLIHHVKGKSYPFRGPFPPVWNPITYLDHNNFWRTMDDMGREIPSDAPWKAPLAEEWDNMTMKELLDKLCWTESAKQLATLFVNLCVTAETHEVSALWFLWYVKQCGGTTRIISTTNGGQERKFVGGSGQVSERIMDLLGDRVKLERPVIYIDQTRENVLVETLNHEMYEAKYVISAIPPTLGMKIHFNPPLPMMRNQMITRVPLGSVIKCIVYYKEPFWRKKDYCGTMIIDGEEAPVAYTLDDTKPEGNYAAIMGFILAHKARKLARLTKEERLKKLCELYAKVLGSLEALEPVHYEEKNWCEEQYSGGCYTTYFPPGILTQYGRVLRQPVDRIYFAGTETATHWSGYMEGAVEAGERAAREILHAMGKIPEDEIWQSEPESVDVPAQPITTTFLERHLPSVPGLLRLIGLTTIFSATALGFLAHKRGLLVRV
Kind of data set: hMAO B inhibition, fluorometric Amplex Red MAO assay. In kind it is biochemical.

The target of data set [2] is T1, hMAO B. Kind of data set: hMAO B reversibility studies. Type of data set: biochemical. To be noted: inhibitor at IC80; without preincubation; compared with safinamide and rasagiline. The protocol:
Reversibility of MAO B inhibitors was tested as described previously with slight modification. Two experiments were performed simultaneously. In the first experiment, inhibitors (in concentrations corresponding to their IC80 values) were incubated with the enzyme and p-tyramine (10 μM) for 22 min (measuring fluorescence every two minutes).

Data set [3] addresses T1, hMAO B. As to the kind of experiment: hMAO B kinetic studies (Michaelis-Menten, Lineweaver-Burk). Type of data set: biochemical. The protocol:
Results from the kinetic experiment were used for determination of Michaelis–Menten curves (Figure 4A,C). […] From Michaelis–Menten curves, Vmax and KM values were fitted (Table 2). For both compounds, Vmax values decreased curvilinearly and KM values increased curvilinearly with the increased inhibitor concentrations.
The mode of the inhibition was tested according to the standard procedure described in Reversibility Studies using different concentrations of the substrate. […] Substrate was used in six concentrations: […], 0.1 mM, 0.5 mM, 1 mM, 1.5 mM, and 2 mM. After the experiment, velocities were calculated and put on the graph (y-axis) against the concentration of the substrate (x-axis). From the Michaelis–Menten plot Vmax, KM, and α values were calculated for different concentrations of the inhibitor. Double-reciprocal plot (Lineweaver–Burk plot) were prepared to display the data.
The α values for different modes of reversible inhibition as well as their diagnostic signature on […]
The α value for compound 9 was calculated by GraphPad Prism software from the nonlinear regression curves using following equation for mixed- […]
v = Vmax*[S] / [S]*(1+ [I]/ αKi) + KM*(1+ [I]/Ki) (1) v – velocity of enzyme reaction. Vmax - maximum velocity (at infinite substrate concentration); Ki – dissociation constant for Enzyme-Inhibitor complex (in the enzymology literature other symbols can be used such as: Ki, Kii , KEI etc.); αKi – dissociation constant for Enzyme-Substrate-Inhibitor complex (in the literature also under the symbols: Ki’, Kis and KES); KM – Michaelis-Menten constant; [I]– concentration of the inhibitor; [S] – concentration of the substrate [Ref S1].
Table S1. Relation between inhibition modality, α value, and diagnostic signature on the double-reciprocal plots (i.e Lineweaver-Burk plot) [S2].
α Inhibition modality Diagnostic signature on […]
α = 1 (inhibitor binds to free enzyme lines converge at the x-axis and enzyme-substrate complex
(inhibitor can bind to free lines converge to the left of the α > 1 enzyme and enzyme-substrate y-axis and above the x-axis complex unequally), inhibitor’s affinity is higher for free enzyme
(inhibitor can bind to free
α < 1 enzyme and enzyme-substrate lines converge to the left of the complex unequally), inhibitor’s y-axis and below the x-axis affinity is higher for the enzyme- […]
α → ∞ (inhibitor and substrate compete lines converge at the y-axis for the same site of binding) […]
α → 0 and α > 0 (inhibitor binds only to the parallel lines

Another data set concerns HEK-293 cells. As to the kind of experiment: toxicity in HEK-293 cells (EZ4U). In kind it is cell-based, human. To be noted: 48 h incubation; EZ4U. The protocol:
(§1) The used reference cytostatic drug doxorubicin (DX) decreased cell viability <50% under the same conditions at very low concentrations of 0.2 and 0.05 µM. […] Oxidative damage was induced by very high toxic levels of hydrogen peroxide (H2O2; 300 µM), the popular cell model for PD research, in neuroblastoma SH-SY5Y cell line. […] Salsolinol (SAL) was used at a concentration of 50 µM as the reference compound with the proven neuroprotection activity.
The HEK-293 cells were seeded at a concentration of 1.5 × 10^4 cells/well in 200 μL culture medium and incubated for 24 h at 37 °C and 5% CO2. […] Then, 25 μL EZ4U labelling mixture (Biomedica, Vienna, Austria) was added and the cells were incubated for 2 h. The spectrophotometric absorbance of the samples was measured using a microplate reader (EnSpire, PerkinElmer, Waltham, MA, USA) at 492 nm. All measurements were performed in triplicate, and results are shown as mean ± SD.

In data set [4] the test system is neuroblastoma SH-SY5Y cells. Kind of data set: neuroprotection in H2O2-treated SH-SY5Y cells (MTS). In kind it is cell-based. To be noted: H2O2 300 µM, 24 h. Here is the method:
as §1
(§2) SH-SY5Y cells were seeded in microplate at a concentration of 2.5 × 10^4 cells/well in 100 μL culture medium and cultured for 24 h at 37 C and 5% CO2 to reach 70% confluence. […] (R,S)-salsolinol (purity ≥ 99%) was obtained from Cayman Chemical (Ann Arbor, MI, USA). Next, H2O2 was added at final concentration 300 μM and the cells were placed into the incubator. After 24 h of compounds co-incubation with H2O2, the CellTiter 96®AQueous Non-Radioactive Cell Proliferation Assay (MTS) labeling mixture was added to each well, and the microplates were incubated under the same conditions for 5 h. The absorbance was measured using a microplate reader EnSpire (PerkinElmer, Waltham, MA USA) at 490 nm. All measurements were performed in triplicate, and results are shown as mean ± SD.

The test system of data set [5] is neuroblastoma SH-SY5Y cells. As to the kind of experiment: toxicity against SH-SY5Y cells. To be noted: 10 and 50 µM. Type of data set: cell-based. Here is the method:
as §1, §2

Setting [6] is: concentration used in kinetic studies.

Take `CC(C)(C)c1ccc(OCCCN2CCCCC2)cc1` [DL76, 1-(3-(4-tert-butylphenoxy)propyl)piperidine]: on hMAO B [1] (setting [6]), the concentration for an effect of 20% (IC20) came out at 0.007 µM. The 80% effect concentration (IC80) on hMAO B [1] (setting [6]) amounted to 0.164 µM. Further, on hMAO B [1] (mean ± SEM of 2-5 independent experiments, p-tyramine 200 μM), half-maximal inhibition (IC50) was put at 0.048 ± 0.015 µM. In addition, the “type of hMAO B inhibition (reversible or irreversible)” value on hMAO B [2] is “reversible”. In addition, the “constant α” value at hMAO B [3] (calculated by GraphPad Prism from nonlinear regression, mixed-model inhibition) was 4.6. Further, at hMAO B [3] (from Vmax and KM behaviour and Lineweaver-Burk plot), the “mode of hMAO B inhibition” value is recorded as “mixed mode inhibition”. Moreover, the results for the “Vmax (RFU/min)” value at hMAO B [3] (inhibitor concentration 7 nM), on hMAO B [3] (inhibitor concentration 48 nM) and at hMAO B [3] (inhibitor concentration 164 nM) were 1628 RFU/min, 1165 RFU/min and 726.3 RFU/min, respectively. Besides, the HEK-293 cell viability entry in the data set on HEK-293 cells is “observed only at the highest doses of 125 µM and 250 µM”. Moreover, the “cell survival of H2O2-damaged SH-SY5Y cells (neuroprotection)” value in data set [4] (10 µM) and in data set [4] (50 µM) was “no increase of cell survival” throughout. For the same molecule, in data set [5], the “toxic effect against SH-SY5Y cells” value was “no toxic effect”.
